The results in this text go back to PubChem BioAssay (NCI).

Some test systems named below: SF-268 CNS; UACC-62 melanoma; HL-60(TB) leukemia; MOLT-4 leukemia; OVCAR-8 ovarian; SW-620 colon; NCI/ADR-RES ovarian; UACC-257 melanoma; RXF 393 renal; SF-539 CNS; K-562 leukemia; ACHN renal; UO-31 renal; COLO 205 colon; KM12 colon; CCRF-CEM leukemia.
Holding throughout (assay): NCI-60 cell line screen, 48 h

Each structure is given as a SMILES string.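 Tested at 5 concentrations; 48 h exposure; 96-well plates; endpoints linearly interpolated, else capped at highest concentration. GI50: concentration for 50% inhibition of growth. Definition used: TGI = concentration required for complete inhibition of growth.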

Turning to `COc1cc2c(cc1C)NC(=O)/C2=C/c1cccnc1`, the TGI in the experiment on SF-268 CNS is 41 µM; in the experiment on UACC-62 melanoma, 25.9 µM; with HL-60(TB) leukemia, 26.2 µM; in the experiment on MOLT-4 leukemia it was 24.1 µM; in the experiment with OVCAR-8 ovarian, over 58.7 µM; in the experiment with SW-620 colon it was 53.1 µM. In addition, the TGI was 42 µM in the experiment with NCI/ADR-RES ovarian; 27.7 µM with UACC-257 melanoma; 25 µM in the experiment on RXF 393 renal; over 84.7 µM with SF-539 CNS; 40.2 µM in the experiment with K-562 leukemia; over 56.8 µM in the experiment with ACHN renal. The TGI in the experiment on UO-31 renal is 26.2 µM; with COLO 205 colon, over 47.9 µM; with KM12 colon, 29.1 µM; in the experiment on CCRF-CEM leukemia, over 56.8 µM. In the experiment on UACC-62 melanoma, the GI50 was 10.1 µM.

For `Nc1cc(Cl)cc2cc(Cl)cnc12`, the TGI in the experiment with SF-268 CNS, in the experiment on UACC-62 melanoma, in the experiment on HL-60(TB) leukemia, with MOLT-4 leukemia, in the experiment with OVCAR-8 ovarian and with SW-620 colon was over 100 µM in each case. Besides, the TGI in the experiment with NCI/ADR-RES ovarian, with UACC-257 melanoma, with RXF 393 renal, in the experiment with SF-539 CNS, in the experiment on K-562 leukemia and in the experiment on ACHN renal was over 100 µM in each case. The TGI in the experiment with UO-31 renal, in the experiment with COLO 205 colon, in the experiment on KM12 colon and with CCRF-CEM leukemia was over 100 µM throughout.

In the case of `CC(=O)C(C(=O)c1ccc(C)cc1)[C@@H]1OC(C)(C)O[C@@H]1[C@H]1COC(C)(C)O1` (stereo partly drawn), the TGI with SF-268 CNS is over 83.4 µM; in the experiment on UACC-62 melanoma it was 25.8 µM; in the experiment on HL-60(TB) leukemia, 25.1 µM; in the experiment with MOLT-4 leukemia it was 22.1 µM; in the experiment on OVCAR-8 ovarian it was over 50.7 µM; in the experiment on SW-620 colon, over 54.6 µM. For the same molecule, the TGI with NCI/ADR-RES ovarian was over 70.9 µM; with UACC-257 melanoma, 28.6 µM; in the experiment on RXF 393 renal it was 36.4 µM; in the experiment with SF-539 CNS, 13.2 µM; with K-562 leukemia, over 32 µM; in the experiment on ACHN renal, 32.5 µM. Also, the TGI with UO-31 renal is over 41.5 µM; in the experiment on COLO 205 colon, 39.6 µM; in the experiment on KM12 colon it was 65.6 µM; in the experiment on CCRF-CEM leukemia, over 36.2 µM.

On to `C[C@]12CC[C@H]3[C@@H](CCC4=CC(=O)CC[C@@H]43)[C@@H]1CC[C@]2(O)C(N)=O`, for which the TGI in the experiment with SF-268 CNS, in the experiment on UACC-62 melanoma, in the experiment with HL-60(TB) leukemia, with MOLT-4 leukemia, in the experiment with OVCAR-8 ovarian and in the experiment with SW-620 colon was over 100 µM throughout. Also, the TGI in the experiment on NCI/ADR-RES ovarian, in the experiment with UACC-257 melanoma, in the experiment on RXF 393 renal, with SF-539 CNS, in the experiment on K-562 leukemia and in the experiment with ACHN renal was over 100 µM each time. The TGI in the experiment on UO-31 renal, with COLO 205 colon, in the experiment with KM12 colon and in the experiment on CCRF-CEM leukemia was over 100 µM in each case.

Regarding `CC(C)C[C@H]1[C@@H](OCc2ccccc2)COS(=O)(=O)N1[C@H](C)c1ccccc1`, the TGI was over 100 µM in the experiment on SF-268 CNS; over 100 µM with UACC-62 melanoma; over 69.7 µM in the experiment on HL-60(TB) leukemia; over 74.7 µM in the experiment on MOLT-4 leukemia; over 100 µM with OVCAR-8 ovarian; over 100 µM with SW-620 colon. The TGI in the experiment on NCI/ADR-RES ovarian, in the experiment with UACC-257 melanoma, with RXF 393 renal, in the experiment on SF-539 CNS, in the experiment with K-562 leukemia and in the experiment on ACHN renal was over 100 µM in each case. The TGI with UO-31 renal, in the experiment with COLO 205 colon, in the experiment with KM12 colon and with CCRF-CEM leukemia was over 100 µM in each case.

`O=S(=O)(O)CCSSCCS(=O)(=O)O`: the TGI in the experiment with SF-268 CNS, in the experiment on UACC-62 melanoma, with HL-60(TB) leukemia, in the experiment with MOLT-4 leukemia, in the experiment on OVCAR-8 ovarian and with SW-620 colon was over 1000 µM throughout. Further, the TGI with NCI/ADR-RES ovarian, in the experiment with UACC-257 melanoma, with RXF 393 renal, in the experiment with SF-539 CNS, in the experiment on K-562 leukemia and with ACHN renal was over 1000 µM each time. For the same molecule, the TGI with UO-31 renal, in the experiment on COLO 205 colon, in the experiment on KM12 colon and with CCRF-CEM leukemia was over 1000 µM in each case.

On to `Cc1ccc2c(c1)C(=O)C1(C2)Cc2c(C)cccc2C1=O` (stereo not drawn), for which the TGI in the experiment on SF-268 CNS, in the experiment with UACC-62 melanoma, in the experiment with HL-60(TB) leukemia, in the experiment with MOLT-4 leukemia, in the experiment on OVCAR-8 ovarian and in the experiment on SW-620 colon was over 100 µM throughout. The TGI in the experiment on NCI/ADR-RES ovarian, in the experiment with UACC-257 melanoma, with RXF 393 renal, in the experiment on SF-539 CNS, with K-562 leukemia and in the experiment on ACHN renal was over 100 µM each time. For the same molecule, the TGI in the experiment on UO-31 renal, with COLO 205 colon, in the experiment with KM12 colon and in the experiment on CCRF-CEM leukemia was over 100 µM in each case.
